Source: patent publication US20240261292A1, “COMBINATION THERAPIES” (Janssen Pharmaceutica NV, priority 2021, published 2024)

Biological target: hERG (Homo sapiens (Human), UniProt Q12809)
Assay: hERG current in hERG-transfected HEK293 cells (Protocol 2, SyncroPatch 384PE)
Assay type: cell-based
Conditions: Protocol 2, HEK293 cells
Experimental: The compound, vehicle control and positive control were tested on hERG-transfected HEK293 cells. A human embryonic kidney cell line (HEK293) with a stable transfection of hERG (Zhou Z et al. Biophysical Journal 1998. 74, 230-241; McDonald T. V. et al, Nature 1997. 388, 289-292) was used (University of Wisconsin, Madison, USA). The cells were kept in culture in MEM (Minimum Essential Medium, Gibco) which was supplemented with (amounts indicated added to 500 ml MEM): 5 ml L-Glutamine-Penicillin-Streptomycin (Sigma), 50 ml Fetal Bovine serum (Bio-Whittaker), 5 ml Non-essential Amino Acids 100× (Gibco), 5 mil sodium pyruvate 100 mM (Gibco) and 4 ml geneticin 50 mg/ml (Gibco) using T175 flasks.
Cells were harvested as described below using Accumax™ (Sigma) as the dissociating reagent. Cells were then resuspended in a mixture of 33% DMEM/F12 (Dulbecco's Modified Eagle Medium/Nutrient Mixture F-12—Sigma) media/67% extracellular physiological solution. […]
The whole cell patch clamp technique on transfected cells allows the study of ion-channels with no—or limited interference from other ion-channels. […] All cells were recorded in the whole cell mode of the patch clamp technique. […]
After the whole cell mode was achieved, test pulses were given for ˜10 minutes to quantify the hERG current in control conditions. […]

hERG, sequence (Q12809 whole entry): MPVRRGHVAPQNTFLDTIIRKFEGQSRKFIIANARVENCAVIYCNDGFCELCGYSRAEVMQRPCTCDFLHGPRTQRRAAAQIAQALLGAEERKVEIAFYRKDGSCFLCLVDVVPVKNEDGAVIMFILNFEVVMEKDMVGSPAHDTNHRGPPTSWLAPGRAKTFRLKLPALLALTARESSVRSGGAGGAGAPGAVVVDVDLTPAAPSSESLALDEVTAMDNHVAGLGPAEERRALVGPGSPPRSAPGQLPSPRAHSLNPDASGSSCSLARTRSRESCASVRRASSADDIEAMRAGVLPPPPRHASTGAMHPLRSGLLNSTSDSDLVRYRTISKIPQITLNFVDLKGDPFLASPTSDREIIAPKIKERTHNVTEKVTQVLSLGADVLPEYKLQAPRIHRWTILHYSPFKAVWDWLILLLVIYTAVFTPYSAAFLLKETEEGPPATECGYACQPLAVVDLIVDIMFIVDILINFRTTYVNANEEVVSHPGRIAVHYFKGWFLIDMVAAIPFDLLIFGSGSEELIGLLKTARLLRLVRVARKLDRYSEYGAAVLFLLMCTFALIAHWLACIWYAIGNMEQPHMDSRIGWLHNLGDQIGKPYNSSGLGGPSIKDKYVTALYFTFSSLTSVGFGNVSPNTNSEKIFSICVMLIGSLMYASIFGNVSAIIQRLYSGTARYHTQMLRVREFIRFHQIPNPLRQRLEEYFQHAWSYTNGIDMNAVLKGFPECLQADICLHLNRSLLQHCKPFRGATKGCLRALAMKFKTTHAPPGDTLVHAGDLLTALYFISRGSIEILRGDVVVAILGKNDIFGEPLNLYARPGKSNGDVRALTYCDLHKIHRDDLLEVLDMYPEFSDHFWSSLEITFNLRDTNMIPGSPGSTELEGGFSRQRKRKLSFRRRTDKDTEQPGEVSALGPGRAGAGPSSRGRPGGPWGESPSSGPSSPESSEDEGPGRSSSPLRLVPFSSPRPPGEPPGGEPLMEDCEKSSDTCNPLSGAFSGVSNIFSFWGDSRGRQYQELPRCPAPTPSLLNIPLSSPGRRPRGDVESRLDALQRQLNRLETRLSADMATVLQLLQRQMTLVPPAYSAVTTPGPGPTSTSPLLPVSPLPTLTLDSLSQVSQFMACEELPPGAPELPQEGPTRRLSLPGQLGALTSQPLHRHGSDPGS

Work on `CCN(C(=O)c1cc(F)ccc1Oc1nncnc1N1CCC2(C1)CN([C@H](CCCNCCOC)C(C)C)C2)C(C)C` [Compound 11, (R)-N-ethyl-5-fluoro-N-isopropyl-2-((5-(2-(6-((2-methoxyethyl)amino)-2-methylhexan-3-yl)-2,6-diazaspiro[3.4]octan-6-yl)-1,2,4-triazin-6-yl)oxy)benzamide] yielded an IC50 of over 30.2 µM.
